Experimental findings from US8669377B2, “Anti-human urothelial carcinoma of supercritical carbon dioxide extract of Cinnamomum subavenium, and the preparation process and uses” (Kaohsiung Medical University, priority 2011, dated 2014) are described below.

The term IC50 denotes the concentration needed to halve the response being measured.

In experiment [1] the test system is NTUB1 cells. The experiment is described as follows: Immunoblotting of cellular proteins. Format: cell-based, human. On the technique in general: A western blot detects proteins with antibodies after separation by electrophoresis.
The test system of experiment [2] is NTUB1 cells. The experiment is described as follows: Intracellular ROS (DCFH-DA flow cytometry), NTUB1. As to conditions: NTUB1, 10 μM, compared with control cells. Format: cell-based, human. On the procedure: (§1) Production of ROS was analyzed by flow cytometry. Briefly, cells were plated in 6-well plates, and dichlorofluorescein diacetate (DCFH-DA, […]) were added to the treated cells 30 minutes prior to harvest. The cells were collected by trypsinization and washed with PBS. The green fluorescence of intracellular DCF (2′,7′-dichlorofluorescein) was then analyzed by FACScan™ flow cytometer with a 525-nm band pass filter. The ROS production efficiency (M1 ratio) was calculated as “[counts of treated sample in M1−counts of control in M1]/counts of control in M1×100”.
For orientation: In flow cytometry, cells or beads pass a laser one at a time.

Experiment [3] deals with NTUB1 cells. The experiment is described as follows: Combinational cytotoxicity (MTT, combination index, median-effect analysis). Format: cell-based, human. The note with it: 24, 48, 72 hours. On the procedure:
(§2) Cellular cytotoxicity of tested compounds was performed by using a MTT (3-[4,5-dimethylthiazol-2-yl]-2,5-diphenyltetrazolium bromide) assay. Briefly, the cells were plated with a density of 1×10^3 cells/well in 96-well plates and incubated at 37° C. overnight before drug treatment. Cells were then cultured in the absence or presence of various concentrations (0.3, 1, 3, 6, 9, 12, 15 and 20 μM) of subamolide A at 37° C. for 72 hours. Subsequently, 50 μL of MTT (2 mg/mL in PBS) was added to each well and allowed to react for another 4 hours. Following centrifugation at 1000×g for 10 minutes, media were removed and 150 μL DMSO were added to each well. The proportions of surviving cells were determined by absorbance spectrometry at 540 nm using a microplate reader. The cell viability was expressed as the survival ratio to the un-treated control. The IC50 values of each group were calculated by the median inhibitory analysis and presented as means±SD. The combinational effects of two compounds were analyzed by median-effect analysis. To evaluate the combined effects in growth inhibition, a corresponding combination index (CI) was adopted for the measurement. The combination index of <1, =1, or >1 denotes synergic, additive, or antagonistic effect, respectively. […]

In experiment [4] the test system is urothelial carcinoma cells T24. The experiment can be described thus: MTT cytotoxicity assay, T24. The experiment is classed as cell-based, human. As to conditions: T24, 72 hours; read-out: IC50 (reduction of growth). As to the method: (§3) Cellular cytotoxicity of tested compounds was performed by using a MTT (3-[4,5-dimethylthiazol-2-yl]-2,5-diphenyltetrazolium bromide) assay. Briefly, the cells were plated with a density of 1×10^3 cells/well in 96-well plates and incubated at 37° C. overnight before drug treatment. Cells were then cultured in the absence or presence of various concentrations (0.3, 1, 3, 6, 9, 12, 15 and 20 μM) of subamolide A at 37° C. for 72 hours. Subsequently, 50 μL of MTT (2 mg/mL in PBS) was added to each well and allowed to react for another 4 hours. Following centrifugation at 1000×g for 10 minutes, media were removed and 150 μL DMSO were added to each well. The proportions of surviving cells were determined by absorbance spectrometry at 540 nm using a microplate reader. The cell viability was expressed as the survival ratio to the un-treated control. The IC50 values of each group were calculated by the median inhibitory analysis and presented as means±SD. The combinational effects of two compounds were analyzed by median-effect analysis. To evaluate the combined effects in growth inhibition, a corresponding combination index (CI) was adopted for the measurement. The combination index of <1, =1, or >1 denotes synergic, additive, or antagonistic effect, respectively.
Background: Tetrazolium dyes change colour on reduction, which living cells bring about.

Experiment [5] deals with normal urothelial cell line SV-HUC-1. The experiment can be described thus: MTT cytotoxicity assay, SV-HUC-1. The note with it: SV-HUC-1, 72 hours; read-out: IC50 (reduction of growth). Format: cell-based, human. As to the method:
(§4) Cytotoxicity assay was performed by using C. subavenium supercritical CO2 extract obtained according to the preparation method mentioned above. […] C. subavenium supercritical CO2 extract selectively functioned on NTUB1 carcinoma cells rather than the normal cells.
as §2, with “analysis.” for “analysis. To evaluate the combined effects in growth inhibition, a corresponding combination index (CI) was adopted for the measurement. The combination index of <1, =1, or >1 denotes synergic, additive, or antagonistic effect, respectively.”

The next experiment has as its system SV-HUC-1 cells. The experiment can be described thus: Intracellular ROS (DCFH-DA flow cytometry), SV-HUC-1. Format: cell-based, human. As to conditions: SV-HUC-1, 10 μM, compared with control cells. As to the method: as §1
For experiment [6], the system named is prostate cancer cells PC3. The experiment is described as follows: MTT cytotoxicity assay, PC3. As to conditions: PC3, 72 hours; read-out: IC50 (reduction of growth). The experiment is classed as cell-based, human. On the procedure: as §3
Experiment [7] has as its system NTUB1 cells. The experiment is described as follows: Cell cycle / sub-G1 apoptotic fraction by flow cytometry. The experiment is classed as cell-based, human. As to conditions: 24 hours.
Experiment [8] deals with human urothelial carcinoma cell line NTUB1. The experiment is described as follows: MTT cytotoxicity assay, NTUB1. The experiment is classed as cell-based. As to the method:
as §4, §3

Like-named read-outs stand apart in the source and are kept apart here.

Turning to “(3Z,4R,5R)-3-tetradecylidene-4-hydroxy-5-methoxy-5-methylbutanolide [subamolide A]”, in the experiment on NTUB1 cells [1] (10 μM), the “Bax/Bcl-2 ratio, fold of change” value is “two-fold increase”. The “cytochrome c released from mitochondria to cytosol, fold of change” value in the experiment with NTUB1 cells [1] (10 μM) is listed as 2.3 folds. The “ERK1/2 activation (immunoblot)” value in the experiment with NTUB1 cells [1] (10 μM, 24 hours, not p38 or JNK) is on record as “specifically activated”. The “p53 protein and phosphorylation of p53 at serine 15” value in the experiment with NTUB1 cells [1] (NTUB1 cells) was “induced”. The “pro-caspase 3 and 116 kDa full length PARP proteins” value with NTUB1 cells [1] (with increased concentration) is listed as “decreased”. Moreover, the “ROS M1 ratio” value was −14.7±0.99% in the experiment with NTUB1 cells [2] and −11.6±1.41% with SV-HUC-1 cells. Further, the “combinational effect with CDDP” value in the experiment with NTUB1 cells [3] (subamolide A 0, 1, 5, 10 μM + CDDP 1 and 3 μM) is “synergism”. Besides, the “combinational effect with Gem” value with NTUB1 cells [3] (subamolide A 0, 1, 5, 10 μM + Gem 2 and 8 nM) is reported as “synergism”. Further, the IC50 came out at 7.6 ± 0.96 µM in experiment [4]; 18.1 ± 1.03 µM in [5]; 10.1 ± 0.59 µM in experiment [6]; 7.26 ± 0.67 µM in experiment [8] (NTUB1, 72 hours, read-out: IC50 (reduction of growth)). The results for the sub-G1 apoptotic fraction in the experiment on NTUB1 cells [7] (1 μM), with NTUB1 cells [7] (5 μM) and in the experiment on NTUB1 cells [7] (10 μM) were 5%, 10.8% and 21.9%, respectively.

Regarding `Nc1ccn([C@@H]2O[C@H](CO)[C@@H](O)C2(F)F)c(=O)n1` [Gem, 4-amino-1-(2-deoxy-2,2-difluoro-β-D-erythro-pentofuranosyl)-pyrimidin-2(1H)-on], the half-maximal inhibitory concentration (IC50) in experiment [8] (Homo sapiens, NTUB1, 72 hours, 1×10^3 cells/well (data not shown), read-out: IC50 to NTUB1 cells) worked out at 0.008 µM.

For `N.N.[Cl][Pt][Cl]` [CDDP, cis-diamminedichloridoplatinum], the IC50 in experiment [8] (72 hours, 1×10^3 cells/well (data not shown), read-out: IC50 to NTUB1 cells) is 3 µM.
